According to patent US20070135405A1, “Novel diazabicyclononene and tetrahydropyridine derivatives with a new polar side-chain” (priority 2003, published 2007):
Blank lines part the entries; values can stand above or below the compound they belong to.

Target: T1, human recombinant renin (Homo sapiens, UniProt P00797)
T1 sequence (P00797 67-406): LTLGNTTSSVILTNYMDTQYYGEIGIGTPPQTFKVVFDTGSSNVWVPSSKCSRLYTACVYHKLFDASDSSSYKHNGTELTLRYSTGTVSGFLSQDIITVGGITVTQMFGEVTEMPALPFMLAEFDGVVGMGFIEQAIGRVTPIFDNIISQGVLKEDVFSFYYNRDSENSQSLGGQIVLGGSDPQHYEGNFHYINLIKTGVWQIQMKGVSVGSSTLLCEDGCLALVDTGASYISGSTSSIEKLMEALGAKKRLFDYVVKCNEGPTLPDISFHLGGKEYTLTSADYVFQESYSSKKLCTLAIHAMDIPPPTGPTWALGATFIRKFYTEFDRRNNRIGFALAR
Assay: Inhibition of human recombinant renin, enzymatic in vitro assay with Ang I detection by EIA
Type: biochemical
Conditions: human recombinant renin 0.16 ng/mL, synthetic human angiotensin (1-14) 0.5 μM, 37° C. for 3 h; read-out: IC50 (concentration of renin inhibition that inhibited the enzyme activity by 50%)
Protocol: Inhibition of Human Recombinant Renin by the Compounds of the Invention The enzymatic in vitro assay was performed in 384-well polypropylene plates (Nunc). The assay buffer consisted of 10 mM PBS (Gibco BRL) including 1 mM EDTA and 0.1% BSA. The incubates were composed of 50 μL per well of an enzyme mix and 2.5 µL of renin inhibitors in DMSO. The enzyme mix was premixed at 4° C. and consists of the following components: • human recombinant renin (0.16 ng/mL)●synthetic human angiotensin (1-14) (0.5 μM) • hydroxyquinoline sulfate (1 mM) The mixtures were then incubated at 37° C. for 3 h. To determine the enzymatic activity and its inhibition, the accumulated Ang I was detected by an enzyme immunoassay (EIA) in 384-well plates (Nunc). 5 μL of the incubates or standards were transferred to immuno plates which were previously coated with a covalent complex of Ang I and bovine serum albumin (Ang I—BSA). 75 μL of Ang I-antibodies in essaybuffer above including 0.01% Tween 20 were added and a primary incubation made at 4° C. overnight. The plates were washed 3 times with PBS including 0.01% Tween 20, and then incubated for 2 h at rt with an antirabbit-peroxidase coupled antibody (WA 934, Amersham).

Compound: Cc1c(CN(C(=O)C2=C(c3ccc(CCCOc4c(F)ccc(F)c4Cl)cc3)CC3COCC2N3)C2CC2)ccnc1OCCCO (racemic) [Example 4, (rac.)-(1R*, 5S*)-7-(4-13-(2-Chloro-3,6-difluorophenoxy)propyl]phenyl}-3-oxa-9-azabicyclo[3.3.1]non-6-ene-6-carboxylic acid cyclopropyl-[2-(3-hydroxypropoxy)-3-methylpyridin-4-ylmethyl]amide]
IC50: 0.55 nM

Compound: COC(=O)CCOc1nccc(CN(C(=O)C2=C(c3ccc(CCCOc4c(F)ccc(F)c4Cl)cc3)CC3CCC2N3)C2CC2)c1C (racemic) [Example 6, (rac.)-(1R *, 5S*)-3-(4-{[(3-({4-[3-(2-Chloro-3,6-difluorophenoxy)propyl]-phenyl}-8-azabicyclo[3.2.1]oct-2-ene-2-carbonyl)cyclopropylamino]methyl}-3-methylpyridin-2-yloxy)propionic acid methyl ester]
IC50: 6.7 nM

Compound: Cc1c(CN(C(=O)C2=C(c3ccc(CCCOc4c(F)ccc(F)c4Cl)cc3)C[C@@H]3CC[C@H]2N3)C2CC2)ccnc1OCCC(N)=O (racemic) [Example 7, (rac.)-(1R*, 5S*)-3-{4-[3-(2-Chloro-3,6-difluorophenoxy)propyl]phenyl}-8-azabicyclo[3.2.1]oct-2-ene-2-carboxylic acid [2-(2-carbamoylethoxy)-3-methylpyridin-4-ylmethyl]cyclopropylamide]
IC50: 3 nM

Compound: Cc1c(CN(C(=O)C2=C(c3ccc(CCCOc4c(F)ccc(F)c4Cl)cc3)C[C@@H]3CC[C@H]2N3)C2CC2)ccnc1OCCCO (racemic) [Example 1, (rac.)-(1R*, 5S*)-3-{4-[3-(2-Chloro-3,6-difluorophenoxy)propyl]phenyl}-8-azabicyclo[3.2.1]oct-2-ene-2-carboxylic acid cyclopropyl-[2-(3-hydroxy-propoxy)-3-methylpyridin-4-ylmethyl]amide]
IC50: 0.25 nM

Compound: Cc1cc(Cl)c(OCCOc2ccc(C3=C(C(=O)N(Cc4ccnc(OCCCO)c4C)C4CC4)C4CCC(C3)N4)cc2)c(Cl)c1 (racemic) [Example 2, (rac.)-(1R*, 5S*)-3-{4-[2-(2,6Dichloro-4-methylphenoxy)ethoxy]phenyl}-8-azabicyclo[3.2.1]oct-2-ene-2-carboxylic acid cyclopropyl-[2-3-hydroxy-propoxy)-3-methylpyridin4-ylmethyl]amide]
IC50: 0.18 nM

Other lines, results leading:

IC50: 5.51 nM
Compound: Cc1c(CN(C(=O)C2=C(c3ccc(CCCOc4c(F)ccc(F)c4Cl)cc3)CC3CS(=O)(=O)CC2N3)C2CC2)ccnc1OCCCO (racemic) [Example 3, (rac.)-(1R*, 5S*)-7-14-[3-(2-Chloro-3,6-difluorophenoxy)propyl]phenyl}-3,3-dioxo-3λ^6-thia-9-azabicyclo[3.3.1]non-6-ene-6-carboxylic acid cyclopropyl-[2-(3-hydroxypropoxy)-3-methylpyridin-4-ylmethyl]amide]

IC50: 3 nM
Compound: Cc1c(CN(C(=O)C2=C(c3ccc(CCCOc4c(F)ccc(F)c4Cl)cc3)C[C@@H]3CC[C@H]2N3)C2CC2)ccnc1OCCC(=O)O (racemic) [Example 5, (rac.)-(1R*, 5S*)-3-(4-{[(3-{4-[3-(2-Chloro-3,6-difluorophenoxy)propyl]-phenyl}-8azabicyclo[3.2.1]oct-2-ene-2-carbonyl)cyclopropylamino]methyl}-3-methyl-pyridin-2-yloxy)propionic acid]
